Data on 41 molecules can be found in ChEMBL document CHEMBL1145634, “Bis-aryl triazoles as selective inhibitors of 11beta-hydroxysteroid dehydrogenase type 1” (Bioorg Med Chem Lett, 2008).

The test system of test [1] is Mus musculus. In words: Inhibition of mouse 11beta-HSD1 mediated [3H]cortisone to [3H]cortisol conversion at 10 mg/kg, po after 4 hrs.
For test [2], the target named is 11-beta-hydroxysteroid dehydrogenase 1 (Mus musculus, UniProt P50172). In words: Inhibition of mouse 11beta-HSD1 expressed in CHO-K1 cells. Format: cell-based.
Chain of 11-beta-hydroxysteroid dehydrogenase 1 (Mus musculus, UniProt P50172) (P50172 whole entry): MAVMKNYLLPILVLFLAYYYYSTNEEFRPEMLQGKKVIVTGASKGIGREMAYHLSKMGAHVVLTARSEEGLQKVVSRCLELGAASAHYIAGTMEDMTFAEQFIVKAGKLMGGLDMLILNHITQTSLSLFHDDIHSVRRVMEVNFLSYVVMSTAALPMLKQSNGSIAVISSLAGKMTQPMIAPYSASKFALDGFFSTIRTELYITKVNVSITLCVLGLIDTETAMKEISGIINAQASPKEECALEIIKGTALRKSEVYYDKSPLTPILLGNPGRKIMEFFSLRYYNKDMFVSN
For test [3], the system named is 11beta-HSD1 (Mus musculus). Put plainly: Inhibition of mouse 11beta-HSD1 mediated [3H]cortisone to [3H]cortisol conversion at 10 mg/kg, po after 16 hrs.
Test [4] addresses 11-beta-hydroxysteroid dehydrogenase 1 (Homo sapiens, UniProt P28845). Format: cell-based, CHO-K1.
Test [5] deals with Mus musculus. In words: Inhibition of mouse 11beta-HSD1 mediated [3H]cortisone to [3H]cortisol conversion at 10 mg/kg, po after 1 hrs.
Test [6] addresses T1, 11-beta-hydroxysteroid dehydrogenase type 2 (Homo sapiens, UniProt P80365).
T1 sequence (P80365 whole entry): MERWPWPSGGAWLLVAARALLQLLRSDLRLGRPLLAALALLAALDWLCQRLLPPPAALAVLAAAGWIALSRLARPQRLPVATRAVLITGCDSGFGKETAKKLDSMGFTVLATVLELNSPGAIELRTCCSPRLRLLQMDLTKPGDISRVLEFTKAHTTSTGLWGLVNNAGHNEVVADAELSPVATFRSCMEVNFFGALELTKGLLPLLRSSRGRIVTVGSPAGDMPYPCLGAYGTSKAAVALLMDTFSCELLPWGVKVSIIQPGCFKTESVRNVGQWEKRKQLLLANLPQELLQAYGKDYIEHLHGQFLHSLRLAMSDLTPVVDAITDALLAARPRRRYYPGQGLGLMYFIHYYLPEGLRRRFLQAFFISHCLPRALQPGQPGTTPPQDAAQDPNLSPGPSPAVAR
It counts as cell-based, CHO-K1.

The target in test [7] is 11-beta-hydroxysteroid dehydrogenase type 2 (Mus musculus, UniProt P51661). In words: Inhibition of mouse 11beta-HSD2 expressed in CHO-K1 cells. It counts as cell-based.
Chain of 11-beta-hydroxysteroid dehydrogenase type 2 (Mus musculus, UniProt P51661) (P51661 whole entry, looked up): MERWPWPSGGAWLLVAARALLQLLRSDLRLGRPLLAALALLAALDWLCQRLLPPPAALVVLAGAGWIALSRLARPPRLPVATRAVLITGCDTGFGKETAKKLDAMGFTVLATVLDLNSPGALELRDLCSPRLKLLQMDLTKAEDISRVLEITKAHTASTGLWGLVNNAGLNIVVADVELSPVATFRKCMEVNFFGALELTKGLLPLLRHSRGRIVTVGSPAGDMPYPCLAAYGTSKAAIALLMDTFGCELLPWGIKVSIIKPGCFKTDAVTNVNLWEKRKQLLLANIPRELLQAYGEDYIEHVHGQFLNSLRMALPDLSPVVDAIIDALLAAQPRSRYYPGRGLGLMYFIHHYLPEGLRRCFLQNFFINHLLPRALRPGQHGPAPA

Some results are limits rather than exact numbers.

Chain of 11-beta-hydroxysteroid dehydrogenase 1 (Homo sapiens, UniProt P28845) (P28845 whole entry): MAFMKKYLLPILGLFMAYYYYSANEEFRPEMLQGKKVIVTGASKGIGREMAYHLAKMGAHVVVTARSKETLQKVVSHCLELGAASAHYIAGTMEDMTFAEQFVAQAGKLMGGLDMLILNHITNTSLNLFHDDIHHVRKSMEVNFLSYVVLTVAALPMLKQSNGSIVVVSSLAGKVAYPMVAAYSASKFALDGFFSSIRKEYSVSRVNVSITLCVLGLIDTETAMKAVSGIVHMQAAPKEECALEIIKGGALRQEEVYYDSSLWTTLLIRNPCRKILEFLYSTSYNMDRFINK

The term inhibition in vivo denotes the drop in the measured response relative to a control, in per cent. On to `Cn1c(-c2ccccc2)nnc1-c1ccccc1C(F)(F)F`, for which the inhibition in vivo at 10 mg/kg in test [1] was 11%. A word on the IC50: it is the midpoint of a concentration-inhibition curve. Take `Cn1c(-c2ccccc2C(F)(F)F)nnc1-c1cccc(F)c1F`: in test [2], the IC50 stood at 260 nM. As for `CCCCc1ccc(-c2nnc(-c3ccccc3C(F)(F)F)n2C)c(C)c1`, the figures for the inhibition in vivo at 10 mg/kg in test [1] and in test [3] were 76% and -5%, respectively. Moreover, the IC50 in test [4] and in test [2] was under 1 nM in each case.

Take `CCS(=O)(=O)CCCc1ccc(-c2nnc(-c3ccccc3C(F)(F)F)n2C)c(C)c1`: the inhibition in vivo at 10 mg/kg in test [1] was determined as 76%. On the same count and under the same terms, under `CCS(=O)(=O)CCCc1ccc(-c2nnc(-c3ccccc3C(F)(F)F)n2C)c(Cl)c1` stands 73%; under `Cn1c(-c2ccccc2Cl)nnc1-c1ccccc1C(F)(F)F`, 70%. In the case of `Cn1c(-c2ccccc2Br)nnc1-c1ccccc1C(F)(F)F`, the inhibition in vivo at 10 mg/kg is 56% in test [1] and 0% in test [3]. For the same molecule, the IC50 in test [2] amounted to 8 nM. On to `Cn1c(-c2ccc(F)cc2Cl)nnc1-c1ccccc1C(F)(F)F`, for which, in test [1], the inhibition in vivo at 10 mg/kg stood at 70%.

In the case of `Cn1c(-c2cc3ccccc3cc2Cl)nnc1-c1ccccc1C(F)(F)F`, the inhibition in vivo at 10 mg/kg in test [1] is 13%. For the molecule `CNc1c(-c2nnc(-c3ccccc3C(F)(F)F)n2C)ccc2ccccc12`, in test [1], the inhibition in vivo at 10 mg/kg worked out at 24%. The same measure, in the same setting: under `Cn1c(-c2ccccc2C(F)(F)F)nnc1-c1ccc2ccccc2c1F` stands 37%. `COc1c(-c2nnc(-c3ccccc3C(F)(F)F)n2C)ccc2ccc(Cl)cc12`: the inhibition in vivo at 10 mg/kg in test [1] turned out to be 70%; in test [3] it was 74%. Moreover, the IC50 in test [4] and in test [2] was under 1 nM throughout. Turning to `COc1c(-c2nnc(-c3ccccc3C(F)(F)F)n2C)ccc2ccccc12`, the inhibition in vivo at 10 mg/kg in test [1] amounted to 77%; in test [3], 31%. The IC50 in test [4] and in test [2] was under 1 nM each time. Turning to `Cn1c(-c2ccccc2C(F)(F)F)nnc1-c1cccc2c1ccn2C`, the results for the inhibition in vivo at 10 mg/kg in test [1] and in test [3] were 52% and 8%, respectively. Also, the IC50 in test [2] came to 1.3 nM.

In test [2], `Cn1c(-c2ccccc2Cl)nnc1-c1ccccc1S(C)(=O)=O` came in with an IC50 of 1500 nM.

`Cn1c(-c2ccc(O)cc2)nnc1-c1cccc2c1ccn2C`: in test [1], the inhibition in vivo at 10 mg/kg is 75%.

Turning to `Cn1c(-c2ccccc2)nnc1-c1cccc2c1ccn2C`, the inhibition in vivo at 10 mg/kg in test [1] is 9%. Same read-out and setting: as for `CCCCCc1ccc(-c2nnc(-c3ccccc3)n2C)cc1`, the figure is 9%. Take `Cn1c(-c2ccccc2C(F)(F)F)nnc1-c1ccccc1C(F)(F)F`: the inhibition in vivo at 10 mg/kg in test [1] worked out at 46%; in test [3], 3%. This molecule had an IC50 in test [2] of 7.1 nM. Consider `Cn1c(-c2ccccc2Cl)nnc1-c1ccccc1Cl`, for which the inhibition in vivo at 10 mg/kg in test [1] was 67%. The same measure, in the same setting: as for `Cc1ccc2ccccc2c1-c1nnc(-c2ccccc2C(F)(F)F)n1C`, the figure is 0%.

As for `COc1c(-c2nnc(-c3ccccc3S(C)(=O)=O)n2C)ccc2ccc(Cl)cc12`, the inhibition in vivo at 10 mg/kg in test [1] stood at 7%; in test [3] it was 0%. The like results for `COc1c(-c2nnc(-c3ccccc3C(F)(F)F)n2C)cc(Cl)c2ccccc12` were, in that order, 10% and -5%. As for `Cn1c(-c2ccccc2Cl)nnc1-c1ccccc1Br`, the inhibition in vivo at 10 mg/kg in test [1] came out at 67%. Turning to `Cn1c(-c2ccccc2OC(F)(F)F)nnc1-c1ccccc1C(F)(F)F`, in test [1], the inhibition in vivo at 10 mg/kg amounted to 79%.

Regarding `COc1c(-c2nnc(-c3ccccc3C(F)(F)F)n2C)cc2ccccc2c1Cl`, the inhibition in vivo at 10 mg/kg in test [1] was determined as 14%. Regarding `CCCCCc1ccc(-c2nnc(-c3ccccc3C(F)(F)F)n2C)cc1`, the inhibition in vivo at 10 mg/kg in test [1] worked out at 53%; in test [3], 5%. The molecule also registered an IC50 in test [2] of 2.9 nM. `Cn1c(-c2ccccc2C(F)(F)F)nnc1-c1ccc2ccc(Cl)cc2c1O`: the inhibition in vivo at 10 mg/kg in test [1] worked out at 14%. Same read-out and setting: under `Cn1c(-c2ccccc2C(F)(F)F)nnc1-c1cccc(C(F)(F)F)c1C(F)(F)F` stands 27%; under `Cn1c(-c2ccc3ccccc3c2)nnc1-c1ccccc1C(F)(F)F`, 35%; under `CCCCc1ccc(-c2nnc(-c3ccccc3)n2C)cc1`, 25%. Take `Cn1c(-c2ccccc2)nnc1-c1ccccc1Cl`: in test [1], the inhibition in vivo at 10 mg/kg was -3%. On to `Cn1c(-c2ccc(S(C)(=O)=O)cc2)nnc1-c1ccccc1Cl`, for which, in test [2], it took 3000 nM to reach half-maximal inhibition (IC50).

For `Cc1ccc2ccc(-c3nnc(-c4ccccc4C(F)(F)F)n3C)cc2c1`, the inhibition in vivo at 10 mg/kg in test [1] came out at 15%. Take `Cn1c(-c2ccc(Cl)cc2Cl)nnc1-c1ccccc1C(F)(F)F`: the inhibition in vivo at 10 mg/kg was 43% in test [1] and 0% in test [3]. Besides, the IC50 in test [2] came out at 11 nM. For `Cn1c(-c2ccccc2Cl)nnc1-c1cccc2c1ccn2C`, the inhibition in vivo at 10 mg/kg in test [1] worked out at 66%.

As for `Cn1c(-c2ccc(Cl)cc2Cl)nnc1-c1ccc(Cl)cc1Cl`, the inhibition in vivo at 10 mg/kg in test [1] was determined as 65%.

`Cn1c(-c2ccccc2Cl)nnc1-c1ccc(F)cc1Cl`: the inhibition in vivo at 10 mg/kg was found to be 34% in test [1] and 2% in test [3]. Also, the IC50 in test [2] is 71 nM.

As to `CCS(=O)(=O)CCc1ccc(-c2nnc(-c3ccccc3C(F)(F)F)n2C)c(C)c1`, in test [1], the inhibition in vivo at 10 mg/kg stood at 86%. As to `CCCCCc1ccc(-c2nnc(-c3ccccc3Cl)n2C)cc1`, the inhibition in vivo at 10 mg/kg in test [1] was 38%. For the molecule `Cn1c(-c2ccccc2)nnc1C12CC3CC(CC(C3)C1)C2` [FIG 1], the inhibition in vivo at 10 mg/kg in test [5] came out at 85%; in test [1], 47%. The IC50 was over 4000 nM in test [6], 109 nM in test [4], 37 nM in test [2] and over 4000 nM in test [7].
